From patent US9414579B2, “Systems and methods for controlling pest infestation of a woody plant” (Dow AgroSciences LLC, priority 2013, dated 2016)

Columns and labels:
Coptotermes spp. [1] = experiment: Example I: field test on a 100 hectare oil palm plot, Quadrants A-D, infested trees inspected monthly for 24 months; format: in vivo; settings: liquid fipronil 2.5 ml/5 L drenching
Method: Testing was performed to determine the effect in the field of an extruded composite member in the form of Recruit® HD, further details of which are provided in U.S. patent application Ser. No. 12/004,655, on Coptotermes spp. More particularly, a 100 hectare plot of oil palm trees was divided into four quadrants: Quadrants A, B, C and D. The palm oil trees in each of Quadrants A-D were investigated for the presence of termite activity or infestation, and the affected trees were marked accordingly. The affected trees in Quadrants A and C were each treated with liquid fipronil (2.5 ml/5 L drenching), and the affected trees in Quadrants B and D were each treated with a 50 g extruded composite member in the form of Recruit® HD (0.5% hexaflumuron) in a manner similar to that described above in connection with system 60. For Quadrants B and D, consumption of the extruded composite members was investigated and recorded accordingly. Post-treatment inspection of the affected trees was performed on a monthly basis for 24 months following initiation of treatment.
The results of the treatments in Quadrants A-D on a monthly basis over a 24 month period of time following initial treatment are graphically illustrated in FIG. 6.

Coptotermes spp. [2] = experiment: Example II: field test on a 60 hectare oil palm plot divided into two plots, infested trees inspected monthly for 24 months; format: in vivo; settings: for Infested Trees: plot 1 (4461 trees) liquid fipronil 2.0 ml/5 L drenching, plot 2 (4432 trees) 50 g Recruit HD per affected tree; for % Infestation: cumulative results, plot 1 fipronil, plot 2 Recruit HD
Method: Testing was performed to determine the effect in the field of an extruded composite member in the form of Recruit® HD, further details of which are provided in U.S. patent application Ser. No. 12/004,655, on Coptotermes spp. More particularly, a 60 hectare plot of oil palm trees was divided into two plots. The palm oil trees in each of the plots were investigated for the presence of termite activity or infestation, and the affected trees were marked accordingly. The affected trees in plot 1 were each treated with liquid fipronil (2.0 ml/5 L drenching), and the affected trees in plot 2 were each treated with a 50 g extruded composite member in the form of Recruit® HD (0.5% hexaflumuron) in a manner similar to that described above in connection with system 60. For plots 1 and 2, consumption of the extruded composite members was investigated and recorded accordingly. Post-treatment inspection of the affected trees was performed on a monthly basis for 24 months following initiation of treatment.

N#Cc1nn(-c2c(Cl)cc(C(F)(F)F)cc2Cl)c(N)c1[S+]([O-])C(F)(F)F (stereo not drawn) [Fipronil, fipronil]
Infested Trees (Coptotermes spp. [1]; Quadrant A (2246 trees), 0 months (before treatment)): 29
Infested Trees (Coptotermes spp. [1]; Quadrant A (2246 trees), 7 months): 30
Infested Trees (Coptotermes spp. [1]; Quadrant A (2246 trees), 12 months): 29
Infested Trees (Coptotermes spp. [1]; Quadrant A (2246 trees), 18 months): 20
Infested Trees (Coptotermes spp. [1]; Quadrant A (2246 trees), 24 months): 13
Infested Trees (Coptotermes spp. [1]; Quadrant C (2215 trees), 0 months (before treatment)): 71
Infested Trees (Coptotermes spp. [1]; Quadrant C (2215 trees), 7 months): 45
Infested Trees (Coptotermes spp. [1]; Quadrant C (2215 trees), 12 months): 51
Infested Trees (Coptotermes spp. [1]; Quadrant C (2215 trees), 18 months): 40
Infested Trees (Coptotermes spp. [1]; Quadrant C (2215 trees), 24 months): 22
Infested Trees (Coptotermes spp. [2]; 0 months (before treatment)): 100
% Infestation (Coptotermes spp. [2]; 1 year): 2.31%
% Infestation (Coptotermes spp. [2]; 2 year): 1.76%
Infested Trees (Coptotermes spp. [2]; 7 months): 75
Infested Trees (Coptotermes spp. [2]; 12 months): 80
Infested Trees (Coptotermes spp. [2]; 18 months): 60
Infested Trees (Coptotermes spp. [2]; 24 months): 35
% Infestation (Coptotermes spp. [2]; Pre-Treatment): 2.24%
